Laboratory results reported in patent US9822382B2, “Process for making ethanol by fermentation” (Evonik Degussa GmbH, priority 2014, dated 2017).

What was measured:
Rod bacteria = Rod bacteria cell count and infection rate in fermented mash, sugar cane ethanol production mill trial; assay type: cell-based
Description: (§1) Bacterial and yeast cell counts, yeast cell viability and yeast flocculation were determined as described in A. J. Oliveira et al., Curso de treinamento em microbiologia, Piracicaba: FERMENTEC and ESALQ, 1996 and in A. J. Oliveira et al., Métodos para o controle microbiológico na produção de açúcar e álcool, Piracicaba: FERMENTEC, FEALQ and ESALQ, 1996. Bacterial infection rates were calculated as the ratio of the rod bacteria cell count and the yeast cell count.
Examples 9 to 11 were carried out in a sugar cane ethanol production mill operating 6 fermenters in fed-batch. The fermented mash is sent to a centrifuge which separates yeast cream with an average yeast content of 63% by weight. The yeast cream is diluted with water to an average yeast content of 27% by weight and transferred to a stirred yeast cream recovery tank. Diluted yeast cream is passed continuously from this tank to a stirred yeast treatment tank at a rate of from 42 to 127 m^3/h. Sulfuric acid is added to the yeast treatment tank to maintain a pH in the range from 1.8 to 2.8. The average residence time in both the yeast cream recovery tank and the yeast treatment tank is in the range of from 1.3 to 4.0 h. Fermentation is carried out by charging the acidified yeast concentrate to a fermenter over a 1 to 2 h period, followed by feeding sugar cane mash with a sugar content of 22° Brix and a pH of 5.8 to the fermenter over a 6 h period. Fermentation is continued for a further 2 h without feed and the fermented mash is sent to a centrifuge. Bacterial contamination was monitored by microbiological analysis of samples of fermented mash taken before feeding the mash to a centrifuge. Samples were analyzed for bacterial and yeast cell counts and for yeast cell viability and yeast flocculation.
In example 9, equilibrium peroxyacetic acid PERACLEAN® 15 of Evonik was dosed to the yeast treatment tank for 28 h in an amount of 60 ppm during days 3 and 4 of the experiment. pH in the yeast treatment tank was maintained in the range of from 1.84 to 2.02.
In example 10, equilibrium peroxyacetic acid PERACLEAN® 15 of Evonik was dosed to the yeast treatment tank for 43 h during days 6 and 7 of the experiment in an amount that was lowered stepwise from 49 ppm to 20 ppm. pH in the yeast treatment tank was maintained in the range of from 1.97 to 2.60.
In example 11, equilibrium peroxyacetic acid PERACLEAN® 15 of Evonik was dosed to the yeast cream recovery tank on days 2 and 3 of the experiment for 13 h in an amount of 50 ppm, followed by dosing for 28 h in an amount of 30 ppm. During this period the pH in the yeast cream recovery tank was in the range of from 3.0 to 3.3. Then dosing of peroxyacetic acid to the yeast cream recovery tank was stopped and peroxyacetic acid was dosed to the yeast treatment tank for 18 h in an amount of 30 ppm. During this period the pH in the yeast treatment tank was about 2.0.

Yeast = Yeast cell count and yeast cell viability, laboratory treatment of yeast cream and fermentation; assay type: cell-based
Description: as §1
(§2) The examples were carried out with a yeast cream obtained by separating yeast from a fermented sugar cane mush from a sugar cane ethanol production mill operating with batch fermentation and yeast recycle. The yeast cream was diluted with water to a yeast cell content of about 24% by weight and the pH of the diluted yeast cream was adjusted to a value of 1.8 by adding sulfuric acid.
Then 322 ml of acidified diluted yeast cream were placed in a vessel and 678 ml of cane must having a pH of 6.2 were added with mixing in 5 portions with 1 h intervals between additions. Fermentation of the cane must with the acidified diluted yeast cream was carried out at 33° C. for 21 h. The final pH of the fermented mash was 4.8.
In example 2, equilibrium peroxyacetic acid PERACLEAN® 15 of Evonik was added to the acidified diluted yeast cream in an amount of 50 mg/l and the resulting treated yeast concentrate was kept at 30° C. for 1.7 hours before it was analyzed microbiologically. Thereafter, fermentation was carried out as in example 1.
Examples 1 and 2 were repeated without adding peroxyacetic acid in example 3 and with addition of equilibrium peroxyacetic acid PERACLEAN® 15 in an amount of 60 mg/l peroxyacetic acid in example 4. The treated yeast cream was kept at 30° C. for 2 hours before it was analyzed microbiologically and fermentation was started.
as §2, with “that operates” for “operating”, “fed-batch” for “batch”, “27%” for “24%”, “weight. The” for “weight and the”, “4.0.” for “adjusted to a value of 1.8 by adding sulfuric acid.”
In example 6, equilibrium peroxyacetic acid PERACLEAN® 15 of Evonik was added to the diluted yeast cream in an amount of 50 mg/l and the resulting treated yeast concentrate was kept at 30° C. for 2.3 hours before it was analyzed microbiologically.
In example 8, the pH of the diluted yeast cream was adjusted as in example 7, equilibrium peroxyacetic acid PERACLEAN® 15 of Evonik was added to the acidified diluted yeast cream in an amount of 50 mg/l and the resulting treated yeast concentrate was kept at 30° C. for 2.0 hours before it was analyzed microbiologically.

[1] = Example 9, fermenter 2, day 3, 60 ppm to yeast treatment tank during days 3 and 4, pH 1.84 to 2.02
[2] = Example 9, fermenter 2, day 4, 60 ppm to yeast treatment tank during days 3 and 4, pH 1.84 to 2.02
[3] = Example 9, fermenter 2, day 5, after addition (60 ppm, days 3 and 4) was stopped
[4] = Example 9, fermenter 4, day 3, 60 ppm to yeast treatment tank during days 3 and 4, pH 1.84 to 2.02
[5] = Example 9, fermenter 4, day 4, 60 ppm to yeast treatment tank during days 3 and 4, pH 1.84 to 2.02
[6] = Example 9, fermenter 4, day 6, after addition (60 ppm, days 3 and 4) was stopped
[7] = Example 10, fermenter 2, day 6, 49 ppm lowered stepwise to 20 ppm to yeast treatment tank during days 6 and 7, pH 1.97 to 2.60
[8] = Example 10, fermenter 2, day 7, 49 ppm lowered stepwise to 20 ppm to yeast treatment tank during days 6 and 7, pH 1.97 to 2.60
[9] = Example 10, fermenter 2, day 8, after dosing during days 6 and 7
[10] = Example 10, fermenter 2, day 9, after dosing during days 6 and 7
[11] = Example 10, fermenter 3, day 6, 49 ppm lowered stepwise to 20 ppm to yeast treatment tank during days 6 and 7, pH 1.97 to 2.60
[12] = Example 10, fermenter 3, day 7, 49 ppm lowered stepwise to 20 ppm to yeast treatment tank during days 6 and 7, pH 1.97 to 2.60
[13] = Example 10, fermenter 3, day 8, after dosing during days 6 and 7
[14] = Example 10, fermenter 3, day 9, after dosing during days 6 and 7
[15] = Example 11, fermenter 3, day 2, 50 ppm then 30 ppm to yeast cream recovery tank on days 2 and 3, pH 3.0 to 3.3
[16] = Example 11, fermenter 3, day 4, after recovery tank dosing, 30 ppm to yeast treatment tank for 18 h, pH about 2.0
[17] = Example 11, fermenter 3, day 6, after the dosing periods
[18] = Example 11, fermenter 6, day 2, 50 ppm then 30 ppm to yeast cream recovery tank on days 2 and 3, pH 3.0 to 3.3
[19] = Example 11, fermenter 6, day 3, 50 ppm then 30 ppm to yeast cream recovery tank on days 2 and 3, pH 3.0 to 3.3
[20] = Example 11, fermenter 6, day 5, after the dosing periods

SMILES: CC(=O)OO [peroxyacetic acid]
- Infection rate in % (Rod bacteria; [1]): 11%
- Rod bacteria cells/ml (Rod bacteria; [1]): 28*10^6 cells/ml
- Infection rate in % (Rod bacteria; [2]): 10%
- Rod bacteria cells/ml (Rod bacteria; [2]): 39*10^6 cells/ml
- Infection rate in % (Rod bacteria; [3]): 18%
- Rod bacteria cells/ml (Rod bacteria; [3]): 51*10^6 cells/ml
- Infection rate in % (Rod bacteria; [4]): 11%
- Rod bacteria cells/ml (Rod bacteria; [4]): 53*10^6 cells/ml
- Infection rate in % (Rod bacteria; [5]): 3%
- Rod bacteria cells/ml (Rod bacteria; [5]): 20*10^6 cells/ml
- Infection rate in % (Rod bacteria; [6]): 22%
- Rod bacteria cells/ml (Rod bacteria; [6]): 57*10^6 cells/ml
- bacterial contamination and yeast flocculation (Rod bacteria; Example 9, upon addition of 60 ppm to yeast treatment tank, return when addition is stopped): reduced
- control of bacterial contamination and yeast flocculation (Rod bacteria; Example 10, continuous addition of 20 ppm to the acidified yeast concentrate): sufficient to control bacterial contamination and avoid yeast flocculation
- Infection rate in % (Rod bacteria; [7]): 2.8%
- Rod bacteria cells/ml (Rod bacteria; [7]): 9.6*10^6 cells/ml
- Infection rate in % (Rod bacteria; [8]): 0.5%
- Rod bacteria cells/ml (Rod bacteria; [8]): 1.4*10^6 cells/ml
- Infection rate in % (Rod bacteria; [9]): 8.1%
- Rod bacteria cells/ml (Rod bacteria; [9]): 24*10^6 cells/ml
- Infection rate in % (Rod bacteria; [10]): 11%
- Rod bacteria cells/ml (Rod bacteria; [10]): 29*10^6 cells/ml
- Infection rate in % (Rod bacteria; [11]): 1.5%
- Rod bacteria cells/ml (Rod bacteria; [11]): 3.0*10^6 cells/ml
- Infection rate in % (Rod bacteria; [12]): 0.2%
- Rod bacteria cells/ml (Rod bacteria; [12]): 0.7*10^6 cells/ml
- Infection rate in % (Rod bacteria; [13]): 4.4%
- Rod bacteria cells/ml (Rod bacteria; [13]): 13*10^6 cells/ml
- Infection rate in % (Rod bacteria; [14]): 7.5%
- Rod bacteria cells/ml (Rod bacteria; [14]): 22*10^6 cells/ml
- effectiveness of addition depending on pH of yeast concentrate (Rod bacteria; Example 11, dosing at pH 3.0 to 3.3 versus about 2.0): effective only for an acidified yeast concentrate at a pH of less than 3.0
- Infection rate in % (Rod bacteria; [15]): 11%
- Rod bacteria cells/ml (Rod bacteria; [15]): 32*10^6 cells/ml
- Infection rate in % (Rod bacteria; [16]): 2%
- Rod bacteria cells/ml (Rod bacteria; [16]): 8.4*10^6 cells/ml
- Infection rate in % (Rod bacteria; [17]): 18%
- Rod bacteria cells/ml (Rod bacteria; [17]): 24*10^6 cells/ml
- Infection rate in % (Rod bacteria; [18]): 5%
- Rod bacteria cells/ml (Rod bacteria; [18]): 23*10^6 cells/ml
- Infection rate in % (Rod bacteria; [19]): 5%
- Rod bacteria cells/ml (Rod bacteria; [19]): 14*10^6 cells/ml
- Infection rate in % (Rod bacteria; [20]): 10%
- Rod bacteria cells/ml (Rod bacteria; [20]): 25*10^6 cells/ml
- Yeast cells/ml (Yeast; Example 2, 50 ppm, pH 1.8, fermented mash after 21 h): 230*10^6 cells/ml
- Yeast cells/ml (Yeast; Example 2, 50 ppm, pH 1.8, treated yeast concentrate, 30° C. 1.7 hours): 550*10^6 cells/ml
- Yeast cells/ml (Yeast; Example 4, 60 ppm, pH 1.8, fermented mash after 19 h): 180*10^6 cells/ml
- Yeast cells/ml (Yeast; Example 4, 60 ppm, pH 1.8, treated yeast concentrate, 30° C. 2 hours): 710*10^6 cells/ml
- Yeast cells/ml (Yeast; Example 6, 50 mg/l, no pH adjustment (pH 4.17), treated yeast concentrate, 30° C. 2.3 hours): 820*10^6 cells/ml
- Yeast cells/ml (Yeast; Example 8, 50 mg/l, pH adjusted to 2.0 with sulfuric acid (pH 2.40), treated yeast concentrate, 30° C. 2.0 hours): 830*10^6 cells/ml
- viability at 50 µg/mL (Yeast; Saccharomyces cerevisiae, pH 2.4, Example 8, 50 mg/l, pH adjusted to 2.0 with sulfuric acid (pH 2.40), treated yeast concentrate, 30° C. 2.0 hours): 88%
- viability at 50 ppm (Yeast; Saccharomyces cerevisiae, Example 2, 50 ppm, pH 1.8, fermented mash after 21 h): 81%
